Values after ≈ are worked out from the molar mass of the structure shown.
Assays:
collagenase = type: cell-based, calf; conditions: primary chondrocytes, pre-incubation 6 hours, then IL-1 20 ng/ml 18 hours; 'as low as'
Procedure: Primary chondrocyte cultures were freshly isolated from calf cartilage. The cells were plated at 2.5×10^6 per ml in 100×20 mm culture dishes and incubated in Ham's F12 medium containing 5% FBS overnight at 37° C. The cells were starved in serum-free medium overnight and then treated with anti-microtubule agents at various concentrations for 6 hours. IL-1 (20 ng/ml) was then added to each plate and the plates incubated for an additional 18 hours. Total RNA was isolated by the acidified guanidine isothiocyanate method and subjected to electrophoresis on a denatured gel. Denatured RNA samples (15 μg) were analyzed by gel electrophoresis in a 1% denatured gel, transferred to a nylon membrane and hybridized with the ^32P-labeled collagenase cDNA probe. ^32P-labeled glyceraldehyde phosphate […] (GAPDH) cDNA as an internal standard to ensure roughly equal loading. The exposed films were scanned and quantitatively analyzed with IMAGEQUANT.

C. glabrata = conditions: manganese compound as enhancer; cited from earlier work
[1] = solvent named in the value; cited from earlier work
collagenase-1 (MMP-1) = assay: IL-1 induced MMP-1 (collagenase) mRNA expression in chondrocytes, Northern blot; type: cell-based
Procedure: (§1) Cells were treated with paclitaxel at various concentrations (10^−7 to 10^−5 M) for 24 hours, then treated with IL-1β (20 ng/ml) for additional 18 hours in the presence of paclitaxel. Total RNA was isolated, and the MMP-1 mRNA levels were determined by Northern blot analysis. The blots were subsequently stripped and reprobed with ^32P-radiolabeled rat GAPDH cDNA, which was used as a housekeeping gene. […] Quantitation of collagenase-1 and stromelysin-expression mRNA levels was conducted. The MMP-1 and MMP-3 expression levels were normalized with GAPDH.

stromelysin (MMP-3) = assay: IL-1 induced MMP-3 (stromelysin) mRNA expression in chondrocytes, Northern blot; type: cell-based
Procedure: as §1

[2] = test system: Primary human smooth muscle cells; assay: Smooth muscle cell migration assay (Boyden chamber, rhPDGF-BB chemotaxis); type: cell-based; conditions: chemotaxis in response to rhPDGF-BB 10 ng/ml, 4 hours
Procedure: Primary human smooth muscle cells were starved of serum in smooth muscle cell basal media containing insulin and human basic fibroblast growth factor (bFGF) for 16 hours prior to the assay. For the migration assay, cells were trypsinized to remove cells from flasks, washed with migration media and diluted to a concentration of 2-2.5×10^5 cells/ml in migration media. […] A 100 μL volume of smooth muscle cells (approximately 20,000-25,000 cells) was added to the top of a Boyden chamber assembly (Chemicon QCM CHEMOTAXIS 96-well migration plate). To the bottom wells, the chemotactic agent, recombinant human platelet derived growth factor (rhPDGF-BB) was added at a concentration of 10 ng/ml in a total volume of 150 μL. […] Plates were incubated for 4 hours to allow cell migration.
At the end of the 4-hour period, cells in the top chamber were discarded and the smooth muscle cells attached to the underside of the filter were detached for 30 minutes at 37° C. in Cell Detachment Solution (Chemicon). […] Relative fluorescence units from triplicate wells were averaged after subtracting background fluorescence (control chamber without chemoattractant) and average number of cells migrating was obtained from a standard curve of smooth muscle cells serially diluted from 25,000 cells/well down to 98 cells/well.

AP-1 = assay: IL-1 induced AP-1 DNA binding activity, gel mobility shift assay; type: cell-based; conditions: chondrocyte nuclear lysates, pretreated with paclitaxel 10^−7 to 10^−5 M for 24 hours
Procedure: Binding activity was assayed with a radiolabeled human AP-1 sequence probe and gel mobility shift assay. Extracts from chondrocytes untreated or treated with various amounts of paclitaxel (10^−7 to 10^−5 M) followed by IL-1β (20 ng/ml) were incubated with excess probe on ice for 30 minutes, followed by non-denaturing gel electrophoresis. The “com” lane contains excess unlabeled AP-1 oligonucleotide.

[3] = particularly in normal saline; cited from earlier work
S. pyogenes C721 = assay: MIC by microtitre broth dilution; type: cell-based; conditions: Streptococcus pyogenes; S. pyogenes C721 wt Gram+; Todd Hewitt broth, 37° C., 24 h; read-out: Minimum inhibitory concentration
Procedure: (§2) MIC assays were conducted essentially as described by Amsterdam, D. 1996, “Susceptibility testing of antimicrobials in liquid media”, p. 52-11, in Loman, V., ed. Antibiotics in laboratory medicine, 4th ed. Williams and Wilkins, Baltimore, Md.

S. epidermidis C621 = assay: MIC by microtitre broth dilution; type: cell-based; conditions: Staphylococcus epidermidis; S. epidermidis C621 wt Gram+; Mueller Hinton broth, 37° C., 24 h; read-out: Minimum inhibitory concentration
Procedure: as §2

S. aureus ATCC25923 C622 = assay: MIC by microtitre broth dilution; type: cell-based; conditions: Staphylococcus aureus; S. aureus ATCC25923 C622 wt Gram+; Mueller Hinton broth, 37° C., 24 h; read-out: Minimum inhibitory concentration
Procedure: as §2

[4] = test system: P. aeruginosa PAE/K799 H187; assay: MIC by microtitre broth dilution; type: cell-based; conditions: Pseudomonas aeruginosa; P. aeruginosa PAE/K799 H187 wt Gram−; Mueller Hinton broth, 37° C., 24 h; read-out: Minimum inhibitory concentration
Procedure: as §2

NFAT = conditions: cited from earlier work
GRE reporter plasmid = conditions: T cells; cited from earlier work
NFkB and AP1 = conditions: cited from earlier work
TNF-α = conditions: acute in vivo model; component alone (prednisolone at reduced dose); cited from earlier work
ERK = conditions: cited from earlier work
p38 and JNK = conditions: cited from earlier work
joint swelling = conditions: chronic / adjuvant model; component alone (prednisolone at reduced dose); cited from earlier work
[5] = test system: Candida spp., Aspergillus spp., Sporothrix schenckii, Penicillium marneffei, Malassezia furfur, Cryptococcus neoformans, Trichosporon spp. and …; conditions: against most Candida spp., Aspergillus spp. and other listed fungi; cited from earlier work
endo-exonuclease = conditions: cited from earlier work
[6] = biological target: protein tyrosine phosphatase 1B (PTP1B) (Homo sapiens, UniProt P18031); conditions: cited from earlier work
[7] = test system: phosphatases of regenerating liver (PRL); conditions: cited from earlier work
[8] = 10^−5 M paclitaxel, 24 hours pretreatment
[9] = chondrocytes pretreated with paclitaxel for 24 hours

Sequence of protein tyrosine phosphatase 1B (PTP1B) (P18031 whole entry): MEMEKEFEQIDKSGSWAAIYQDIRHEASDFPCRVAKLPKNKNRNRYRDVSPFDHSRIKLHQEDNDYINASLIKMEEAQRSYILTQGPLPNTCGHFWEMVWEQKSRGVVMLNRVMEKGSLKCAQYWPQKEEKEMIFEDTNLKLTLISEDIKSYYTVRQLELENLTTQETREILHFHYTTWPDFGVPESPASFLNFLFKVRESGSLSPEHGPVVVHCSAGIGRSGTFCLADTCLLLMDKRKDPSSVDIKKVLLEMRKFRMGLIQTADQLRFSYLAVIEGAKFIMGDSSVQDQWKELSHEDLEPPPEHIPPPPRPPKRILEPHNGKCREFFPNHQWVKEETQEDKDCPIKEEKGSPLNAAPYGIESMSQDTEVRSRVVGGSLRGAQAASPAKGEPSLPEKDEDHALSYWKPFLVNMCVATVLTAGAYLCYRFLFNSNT

[F][Al]([F])[F] [AIF3]
lowest concentration that prevented IL-1-induced collagenase expression (collagenase): 100 nM

N#CC1=C(N)Oc2c(ccc3ccccc23)C1c1cccc([N+](=O)[O-])c1 (stereo not shown) [LY290181]
lowest concentration that prevented IL-1-induced collagenase expression (collagenase): 100 nM

CCC(C)n1ncn(-c2ccc(N3CCN(c4ccc(OC[C@H]5CO[C@](Cn6cncn6)(c6ccc(Cl)cc6Cl)O5)cc4)CC3)cc2)c1=O (mixture of isomers) [itraconazole]
anti-fungal activity against C. glabrata in combination with a manganese compound (C. glabrata): enhances

epothilone
lowest concentration that prevented IL-1-induced collagenase expression (collagenase): 100 nM

N=C(N)c1ccc(OCCCCCOc2ccc(C(=N)N)cc2)cc1 [Pentamidine isethionate, pentamidine isethionate]
solubility, in words [1]: soluble in water and glycerin and insoluble in ether, acetone, and chloroform

CC(=O)O[C@H]1C(=O)[C@@]2(C)[C@H]([C@H](OC(=O)c3ccccc3)[C@]3(O)C[C@H](OC(=O)[C@H](O)[C@@H](NC(=O)c4ccccc4)c4ccccc4)C(C)=C1C3(C)C)[C@]1(OC(C)=O)CO[C@@H]1C[C@@H]2O [paclitaxel]
collagenase mRNA levels (IL-1 induced) (collagenase-1 (MMP-1); [8]): complete inhibition
collagenase mRNA levels (IL-1 induced) (collagenase-1 (MMP-1); [9]): significantly reduced
concentration inhibiting collagenase expression in vitro (collagenase-1 (MMP-1); chondrocytes, IL-1 induced): 10^−6 M
stromelysin mRNA levels (IL-1 induced) (stromelysin (MMP-3); [8]): complete inhibition
stromelysin mRNA levels (IL-1 induced) (stromelysin (MMP-3); [9]): significantly reduced
concentration inhibiting stromelysin expression in vitro (stromelysin (MMP-3); chondrocytes, IL-1 induced): 10^−6 M
IC50 [2]: 0.76 nM
IL-1 induced AP-1 binding activity to oligonucleotides (AP-1): decreased

NNCCc1ccccc1 [Phenelzine, phenelzine]
solubility, in words [1]: highly soluble in water and very poorly soluble in alcohol

CN(C)/N=N/c1[nH]cnc1C(N)=O [Dacarbazine, dacarbazine]
solubility, in words [1]: poorly soluble in water and ethanol

C[C@@H]1[C@H](O)[C@@H](C)/C=C/C=C/C=C/C=C/C=C/C=C/C=C/[C@H](O[C@@H]2O[C@H](C)[C@@H](O)[C@H](N)[C@@H]2O)C[C@@H]2O[C@](O)(C[C@@H](O)C[C@@H](O)[C@H](O)CC[C@@H](O)C[C@@H](O)CC(=O)O[C@H]1C)C[C@H](O)[C@H]2C(=O)O [Amphotericin B, amphotericin B]
stability in solution [3]: unstable in solution
solubility, in words [1]: poorly water soluble

[2H]O[2H] [deuterium oxide]
lowest concentration that prevented IL-1-induced collagenase expression (collagenase): 100 nM

hexylene glycol
lowest concentration that prevented IL-1-induced collagenase expression (collagenase): 100 nM

NC(=O)c1ncn([C@@H]2O[C@H](CO)[C@@H](O)[C@H]2O)n1 [Ribavirin, ribavirin]
solubility, in words [1]: only slightly soluble in alcohol

COc1c2occc2cc2ccc(=O)oc12 [Methoxsalen, methoxsalen]
solubility, in words [1]: very poorly soluble in water, slightly soluble in alcohol, and readily soluble in propylene glycol

CC[C@H](C)C[C@H](C)CCCCCCCCC(=O)N[C@H]1C[C@@H](O)[C@@H](NCCN)NC(=O)[C@@H]2[C@@H](O)CCN2C(=O)[C@H]([C@H](O)CCN)NC(=O)[C@H]([C@H](O)[C@@H](O)c2ccc(O)cc2)NC(=O)[C@@H]2C[C@@H](O)CN2C(=O)[C@H]([C@@H](C)O)NC1=O [caspofungin]
anti-fungal activity against C. glabrata in combination with a manganese compound (C. glabrata): enhances

OC(Cn1cncn1)(Cn1cncn1)c1ccc(F)cc1F [fluconazole]
anti-fungal activity against C. glabrata in combination with a manganese compound (C. glabrata): enhances

C[N+]1(CCCCC[N+]2(C)CCCC2)CCCC1 [Pentolinium ditartrate, pentolinium]
solubility, in words [1]: highly soluble in water

Nc1ccc(/N=N/c2ccccc2)c(N)n1 [Phenazopyridine base, phenazopyridine]
solubility, in words [1]: slightly soluble in water and alcohol

CCOC(=O)CN [glycine ethyl ester]
lowest concentration that prevented IL-1-induced collagenase expression (collagenase): 100 nM

ethylene glycol bis-(succinimidylsuccinate)
lowest concentration that prevented IL-1-induced collagenase expression (collagenase): 100 nM

O=c1[nH]cc(F)c(=O)[nH]1 [5-fluorouracil]
MIC (S. pyogenes C721): 100 µM (≈ 13 µg/mL)
MIC (S. epidermidis C621): 0.1 µM (≈ 0.013 µg/mL)
MIC (S. aureus ATCC25923 C622): 0.1 µM (≈ 0.013 µg/mL)
MIC [4]: 10 µM (≈ 1.3 µg/mL)

Clc1ccc2c(c1)C(N1CCNCC1)=Nc1ccccc1O2 [amoxapine]
effect on NFAT activation, translocation and transactivation (NFAT): block
potentiation of prednisolone's ability to transactivate a GRE reporter plasmid (GRE reporter plasmid): does not potentiate
effect on NFkB and AP1 activation (NFkB and AP1): partially inhibits
effect of the individual components alone on TNF-α production (TNF-α): modest or no benefit
effect on ERK activation (ERK): unaffected
effect on p38 and JNK activation (p38 and JNK): Inhibition
effect of the individual components alone on joint swelling (joint swelling): modest or no benefit

Nc1ncnc2c1ccn2[C@@H]1O[C@H](CO)[C@@H](O)[C@H]1O [tubercidin]
lowest concentration that prevented IL-1-induced collagenase expression (collagenase): 100 nM

CC[C@@]1(O)C(=O)OCc2c1cc1n(c2=O)Cc2cc3ccccc3nc2-1 [camptothecin]
MIC (S. epidermidis C621): 100 µM (≈ 34.8 µg/mL)

CN(C/C=C/C#CC(C)(C)C)Cc1cccc2ccccc12.Cl [terbinafine]
in vitro anti-fungal activity [5]: has activity
anti-fungal activity against C. glabrata in combination with a manganese compound (C. glabrata): enhances

CC(=O)N1CCN(c2ccc(OC[C@@H]3CO[C@@](Cn4ccnc4)(c4ccc(Cl)cc4Cl)O3)cc2)CC1 (racemic) [ketoconazole]
solubility, in words [1]: essentially insoluble in water

N=C(N)c1ccc(OCCCCCOc2ccc(C(=N)N)cc2)cc1 [pentamidine]
inhibition of the activity of endo-exonuclease (endo-exonuclease): inhibit
inhibition of protein tyrosine phosphatase 1B (PTP1B) [6]: effective inhibitor
inhibition of the oncogenic phosphatases of regenerating liver (PRL) [7]: potent inhibitor
